# In patent US8476434B2, “Protein kinase modulators and method of use” (Amgen Inc., priority 2004, dated 2013):
# Target: T1, LCK KD GST (225-509) (Homo sapiens, UniProt P06239)
# T1 construct: LCK KD GST (225-509); GST
# Assay: LCK Homogenous Time Resolved Fluorescent (HTRF) kinase assay
# Assay type: biochemical
# Protocol: The LCK HTRF assay begins with LCK in the presence of ATP phosphorylating the biotinylated peptide Gastrin. The reaction incubates for 90 min. To quench the assay detection reagents are added which both stop the reaction by diluting out the enzyme and chelating the metals due to the presence of EDTA. Once the detection reagents are added the assay incubates for 30 min to allow for equilibration of the detection reagents.
# Buffer conditions are as follows: 50 mM HEPES pH 7.5, 50 mM NaCl, 20 mM MgCl, 5 mM MnCl, 2 mM DTT, 0.05% BSA.
# The assay is quenched and stopped with 160 μL of detection reagent. Detection reagents are as follows: Buffer made of 50 mM Tris, pH 7.5, 100 mM NaCl, 3 mM EDTA, 0.05% BSA, 0.1% Tween20.
# The assay plate is read in either a Discovery or a RubyStar.
# T1 sequence (P06239 225-509): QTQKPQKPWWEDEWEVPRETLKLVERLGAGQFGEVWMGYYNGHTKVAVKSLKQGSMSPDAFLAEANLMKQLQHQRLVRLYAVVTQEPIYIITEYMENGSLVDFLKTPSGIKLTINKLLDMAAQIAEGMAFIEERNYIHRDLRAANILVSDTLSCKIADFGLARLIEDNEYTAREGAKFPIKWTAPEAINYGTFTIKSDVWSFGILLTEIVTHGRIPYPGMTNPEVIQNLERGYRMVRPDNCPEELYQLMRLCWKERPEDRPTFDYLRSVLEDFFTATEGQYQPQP
row,IC50 [nM],SMILES
1,< 1000,CNc1nccc(-c2cccnc2Oc2cc(C(=O)Nc3cc(C(F)(F)F)ccc3N3CCCCC3)ccc2C)n1
2,< 1000,CNc1nccc(-c2cccnc2Oc2cc(C(=O)Nc3cc(C(F)(F)F)ccc3N(C)C3CCN(C)CC3)c(F)cc2C)n1 [2-fluoro-4-methyl-5-((3-(2-(methylamino)-4-pyrimidinyl)-2-pyridinyl)oxy)-N-(2-(methyl(1-methyl-4-piperidinyl)amino)-5-(trifluoromethyl)phenyl)benzamide]
3,< 1000,CNc1nccc(-c2cccnc2Oc2ccc(F)c(C(=O)Nc3cc(C(F)(F)F)ccc3N(C)C3CCN(C)C3)c2)n1 (stereo not shown) [2-fluoro-5-((3-(2-(methylamino)-4-pyrimidinyl)-2-pyridinyl)oxy)-N-(2-(methyl(1-methyl-3-pyrrolidinyl)amino)-5-(trifluoromethyl)phenyl)benzamide]
4,< 1000,CNc1nccc(-c2cccnc2Oc2ccc(F)c(C(=O)Nc3cccc(C(C)C)c3)c2)n1 [2-fluoro-5-((3-(2-(methylamino)-4-pyrimidinyl)-2-pyridinyl)oxy)-N-(3-(1-methylethyl)phenyl)benzamide]
5,< 1000,"CNc1nccc(-c2cccnc2Oc2cccc(NC(=O)c3cc(Cl)cc(Cl)c3)c2)n1 [3,5-dichloro-N-(3-((3-(2-(methylamino)-4-pyrimidinyl)-2-pyridinyl)oxy)phenyl)benzamide]"
6,< 1000,"CNc1cc(-c2cccnc2Oc2cc(NC(=O)c3cccc(C(C)C)c3)ccc2C)ccn1 [3-(1-methylethyl)-N-(4-methyl-3-((2′-(methylamino)-3,4′-bipyridin-2-yl)oxy)phenyl)benzamide]"
7,< 1000,CCN(CC)CCNc1nccc(-c2cccnc2Oc2cc(C(=O)Nc3cc(C(F)(F)F)ccc3N3CCOCC3)ccc2C)n1 [3-((3-(2-((2-(diethylamino)ethyl)amino)-4-pyrimidinyl)-2-pyridinyl)oxy)-4-methyl-N-(2-(4-morpholinyl)-5-(trifluoromethyl)phenyl)benzamide]
8,< 1000,CNc1nccc(-c2cccnc2Oc2cccc(C(=O)Nc3cccc(C(C)C)c3)c2)n1 [3-((3-(2-(methylamino)-4-pyrimidinyl)-2-pyridinyl)oxy)-N-(3-(1-methylethyl)phenyl)benzamide]
9,< 1000,"CCNc1ncnc(-c2cccnc2Oc2cc(C(=O)Nc3cccc(C(C)C)c3)ccc2C)n1 [3-((3-(4-(ethylamino)-1,3,5-triazin-2-yl)-2-pyridinyl)oxy)-4-methyl-N-(3-(1-methylethyl)phenyl)benzamide]"
10,< 1000,"CC(C)c1cccc(NC(=O)c2cccc(Nc3ncccc3-c3ncnc(N)n3)c2)c1 [3-((3-(4-amino-1,3,5-triazin-2-yl)-2-pyridinyl)amino)-N-(3-(1-methylethyl)phenyl)benzamide]"
11,< 1000,CNc1nccc(-c2cc(N(C)CCCN(C)C)cnc2Oc2cc(C(=O)Nc3cccc(C(C)C)c3)ccc2C)n1 [3-((5-((3-(dimethylamino)propyl)(methyl)amino)-3-(2-(methylamino)-4-pyrimidinyl)-2-pyridinyl)oxy)-4-methyl-N-(3-(1-methylethyl)phenyl)benzamide]
12,< 1000,CNc1nccc(-c2cccnc2Oc2cc(NC(=O)c3cccc(N(C)C)c3)cc(C(F)(F)F)c2)n1 [3-(dimethylamino)-N-(3-((3-(2-(methylamino)-4-pyrimidinyl)-2-pyridinyl)oxy)-5-(trifluoromethyl)phenyl)benzamide]
13,< 1000,CNc1nccc(-c2cccnc2Oc2cc(Br)cc(C(=O)Nc3cc(C(F)(F)F)ccc3N(C)[C@H]3CCN(C)C3)c2)n1 [3-bromo-5-((3-(2-(methylamino)-4-pyrimidinyl)-2-pyridinyl)oxy)-N-(2-(methyl((3S)-1-methyl-3-pyrrolidinyl)amino)-5-(trifluoromethyl)phenyl)benzamide]
14,< 1000,CNc1nccc(-c2cccnc2Oc2cc(Br)cc(C(=O)Nc3cccc(C(C)C)c3)c2)n1 [3-bromo-5-((3-(2-(methylamino)-4-pyrimidinyl)-2-pyridinyl)oxy)-N-(3-(1-methylethyl)phenyl)benzamide]
15,< 1000,C#Cc1cc(Oc2ncccc2-c2ccnc(NC)n2)cc(C(=O)Nc2cccc(C(F)(F)F)c2)c1 [3-ethynyl-5-((3-(2-(methylamino)-4-pyrimidinyl)-2-pyridinyl)oxy)-N-(3-(trifluoromethyl)phenyl)benzamide]
16,< 1000,"CNc1ncnc(-c2cccnc2Oc2cc(F)cc(C(=O)Nc3cccc(C(C)C)c3)c2)n1 [3-fluoro-5-((3-(4-(methylamino)-1,3,5-triazin-2-yl)-2-pyridinyl)oxy)-N-(3-(1-methylethyl)phenyl)benzamide]"
17,< 1000,"CNc1nccc(-c2cc(Cl)cnc2Oc2c(C)cccc2C)n1 [4-(5-chloro-2-((2,6-dimethylphenyl)oxy)-3-pyridinyl)-N-methyl-2-pyrimidinamine]"

row,IC50 [nM],SMILES
1,< 1000,COc1ccc(C(=O)Nc2cccc(C(F)(F)F)c2)cc1Nc1ncccc1-c1ccncn1 [4-(methyloxy)-3-((3-(4-pyrimidinyl)-2-pyridinyl)amino)-N-(3-(trifluoromethyl)phenyl)benzamide]
2,< 1000,CNc1nccc(-c2cccnc2Oc2cc(C(=O)Nc3cc(C(F)(F)F)ccc3N3CCCCC3)ccc2Cl)n1 [4-chloro-3-((3-(2-(methylamino)-4-pyrimidinyl)-2-pyridinyl)oxy)-N-(2-(1-piperidinyl)-5-(trifluoromethyl)phenyl)benzamide]
3,< 1000,CNc1nccc(-c2cccnc2Oc2cc(C(=O)Nc3cc(C(F)(F)F)ccc3N3CCCCC3)ccc2F)n1 [4-fluoro-3-((3-(2-(methylamino)-4-pyrimidinyl)-2-pyridinyl)oxy)-N-(2-(1-piperidinyl)-5-(trifluoromethyl)phenyl)benzamide]
4,< 1000,"CC(C)c1cccc(NC(=O)c2ccc(F)c(Nc3ncccc3-c3ncnc(NCCCn4ccnc4)n3)c2)c1 [4-fluoro-3-((3-(4-((3-(1H-imidazol-1-yl)propyl)amino)-1,3,5-triazin-2-yl)-2-pyridinyl)amino)-N-(3-(1-methylethyl)phenyl)benzamide]"
5,< 1000,"COc1cc(-c2cccnc2Oc2cc(C(=O)Nc3cccc(C(F)(F)F)c3)ccc2C)ccn1 [4-methyl-3-((2′-(methyloxy)-3,4′-bipyridin-2-yl)oxy)-N-(3-(trifluoromethyl)phenyl)benzamide]"
6,< 1000,CNc1nccc(-c2cccnc2Oc2cc(C(=O)Nc3cc(OC[C@H]4CCCN4C)cc(C(F)(F)F)c3)ccc2C)n1 [4-methyl-3-((3-(2-(methylamino)-4-pyrimidinyl)-2-pyridinyl)oxy)-N-(3-((((2R)-1-methyl-2-pyrrolidinyl)methyl)oxy)-5-(trifluoromethyl)phenyl)benzamide]
7,< 1000,CNc1nccc(-c2cccnc2Oc2cc(C(=O)Nc3cccc(OCc4ccccc4)c3)ccc2C)n1 [4-methyl-3-((3-(2-(methylamino)-4-pyrimidinyl)-2-pyridinyl)oxy)-N-(3-((phenylmethyl)oxy)phenyl)benzamide]
8,< 1000,CNc1nccc(-c2cccnc2Oc2cc(C(=O)Nc3cccc(Cc4ccccc4)c3)ccc2C)n1 [4-methyl-3-((3-(2-(methylamino)-4-pyrimidinyl)-2-pyridinyl)oxy)-N-(3-(phenylmethyl)phenyl)benzamide]
9,< 1000,CNc1nccc(-c2cccnc2Oc2cc(C(=O)Nc3ccc(C(C)C)cc3)ccc2C)n1 [4-methyl-3-((3-(2-(methylamino)-4-pyrimidinyl)-2-pyridinyl)oxy)-N-(4-(1-methylethyl)phenyl)benzamide]
10,< 1000,"CNc1nccc(-c2cccnc2Oc2cc(C(=O)Nc3cc(-c4ccccc4)ccc3OC)ccc2C)n1 [4-methyl-3-((3-(2-(methylamino)-4-pyrimidinyl)-2-pyridinyl)oxy)-N-(4-(methyloxy)-1,1′-biphenyl-3-yl)benzamide]"
11,< 1000,CNc1nccc(-c2cccnc2Oc2cc(C(=O)N[C@H](C)c3ccccc3)ccc2C)n1 [4-methyl-3-((3-(2-(methylamino)-4-pyrimidinyl)-2-pyridinyl)oxy)-N-((1R)-1-phenylethyl)benzamide]
12,< 1000,CNc1nccc(-c2cccnc2Oc2cc(C(=O)NCc3cccc(C(F)(F)F)c3)ccc2C)n1 [4-methyl-3-((3-(2-(methylamino)-4-pyrimidinyl)-2-pyridinyl)oxy)-N-((3-(trifluoromethyl)phenyl)methyl)benzamide]
13,< 1000,CNc1nccc(-c2cc(N3CCN(C)CC3)cnc2Oc2cc(C(=O)Nc3cccc(C(C)C)c3)ccc2C)n1 [4-methyl-3-((3-(2-(methylamino)-4-pyrimidinyl)-5-(4-methyl-1-piperazinyl)-2-pyridinyl)oxy)-N-(3-(1-methylethyl)phenyl)benzamide]
14,< 1000,CNc1nccc(-c2cc(N3CCOCC3)cnc2Oc2cc(C(=O)Nc3cccc(C(C)C)c3)ccc2C)n1 [4-methyl-3-((3-(2-(methylamino)-4-pyrimidinyl)-5-(4-morpholinyl)-2-pyridinyl)oxy)-N-(3-(1-methylethyl)phenyl)benzamide]
15,< 1000,"CNc1ncnc(-c2cccnc2Oc2cc(C(=O)Nc3cc(C(F)(F)F)ccc3N3CCCCC3)ccc2C)n1 [4-methyl-3-((3-(4-(methylamino)-1,3,5-triazin-2-yl)-2-pyridinyl)oxy)-N-(2-(1-piperidinyl)-5-(trifluoromethyl)phenyl)benzamide]"
16,< 1000,"CNc1ncnc(-c2cccnc2Oc2cc(C(=O)Nc3cccc(C(F)(F)F)c3C)ccc2C)n1 [4-methyl-3-((3-(4-(methylamino)-1,3,5-triazin-2-yl)-2-pyridinyl)oxy)-N-(2-methyl-3-(trifluoromethyl)phenyl)benzamide]"
17,< 1000,"CNc1ncnc(-c2cccnc2Oc2cc(C(=O)Nc3cccc(C(C)C)c3)ccc2C)n1 [4-methyl-3-((3-(4-(methylamino)-1,3,5-triazin-2-yl)-2-pyridinyl)oxy)-N-(3-(1-methylethyl)phenyl)benzamide]"
